BigSolDB 2.1

Cn1[nH]c(=O)c(=O)[nH]c1=S
Settings | solubility (mole fraction)
in acetone, 293.25 K | 0.015
in acetone, 298.25 K | 0.0155
in acetone, 303.09 K | 0.016
in acetone, 308.05 K | 0.0168
in acetone, 312.79 K | 0.0178
in acetone, 318.03 K | 0.0186
in acetone, 323.07 K | 0.0199
in acetone, 327.37 K | 0.0209
in acetonitrile, 293.21 K | 0.00221
in acetonitrile, 298.23 K | 0.00248
in acetonitrile, 303.15 K | 0.00268
in acetonitrile, 308.11 K | 0.00299
in acetonitrile, 313.07 K | 0.00333
in acetonitrile, 317.95 K | 0.00375
in acetonitrile, 323.11 K | 0.0042
in acetonitrile, 328.13 K | 0.00463
in acetonitrile, 333.23 K | 0.00521
in acetonitrile, 338.17 K | 0.00585
in acetonitrile, 342.75 K | 0.00654
in ethanol, 293.23 K | 0.0125
in ethanol, 298.35 K | 0.014
in ethanol, 303.33 K | 0.0152
in ethanol, 308.29 K | 0.0169
in ethanol, 313.47 K | 0.0186
in ethanol, 318.47 K | 0.0205
in ethanol, 323.41 K | 0.0228
in ethanol, 328.23 K | 0.0255
in ethanol, 333.53 K | 0.0278
in ethanol, 338.63 K | 0.0307
in ethanol, 343.33 K | 0.0345
in ethyl acetate, 293.07 K | 0.00574
in ethyl acetate, 298.49 K | 0.00617
in ethyl acetate, 303.41 K | 0.00643
in ethyl acetate, 308.49 K | 0.00697
in ethyl acetate, 313.53 K | 0.00747
in ethyl acetate, 318.67 K | 0.00799
in ethyl acetate, 323.49 K | 0.0086
in ethyl acetate, 328.61 K | 0.00918
in ethyl acetate, 333.53 K | 0.00985
in ethyl acetate, 338.23 K | 0.0104
in ethyl acetate, 343.33 K | 0.0111
in isopropanol, 293.11 K | 0.00556
in isopropanol, 298.21 K | 0.00663
in isopropanol, 303.13 K | 0.00782
in isopropanol, 308.11 K | 0.00915
in isopropanol, 312.87 K | 0.0107
in isopropanol, 317.83 K | 0.0124
in isopropanol, 323.07 K | 0.0142
in isopropanol, 328.13 K | 0.0164
in isopropanol, 333.09 K | 0.0187
in isopropanol, 337.75 K | 0.0217
in isopropanol, 342.67 K | 0.0248
in n-butanol, 293.11 K | 0.00872
in n-butanol, 298.23 K | 0.00964
in n-butanol, 302.99 K | 0.0109
in n-butanol, 308.11 K | 0.0124
in n-butanol, 313.13 K | 0.0141
in n-butanol, 318.05 K | 0.0159
in n-butanol, 322.89 K | 0.0178
in n-butanol, 328.13 K | 0.02
in n-butanol, 333.39 K | 0.0224
in n-butanol, 338.07 K | 0.0255
in n-butanol, 343.23 K | 0.0288
in n-propanol, 292.99 K | 0.00859
in n-propanol, 298.33 K | 0.00959
in n-propanol, 303.23 K | 0.0108
in n-propanol, 308.23 K | 0.0122
in n-propanol, 313.15 K | 0.0139
in n-propanol, 318.23 K | 0.0157
in n-propanol, 323.23 K | 0.0176
in n-propanol, 328.47 K | 0.0198
in n-propanol, 333.07 K | 0.0223
in n-propanol, 338.33 K | 0.0251
in n-propanol, 343.35 K | 0.0286
in water, 293.23 K | 0.00139
in water, 298.15 K | 0.00158
in water, 302.93 K | 0.00187
in water, 312.93 K | 0.00263
in water, 317.65 K | 0.00306
in water, 322.85 K | 0.00366
in water, 327.77 K | 0.00438
in water, 332.83 K | 0.00522
in water, 337.35 K | 0.00623
in water, 342.47 K | 0.00748
